Assay results from patent US11109593B2, “Isoxazolin-5-one derivative and herbicide containing same as active ingredient” (HOKKO CHEMICAL INDUSTRY CO., LTD., priority 2017, dated 2021).

These molecules were tested on Echinochloa crus-galli (assay: Test Example 1: herbicidal effect test by treatment of rice paddy soil (immediately after seeding)). Conditions: 120 g/10a active ingredient, dry weight vs untreated area, 14 days after treatment.
Assay type: in vivo
Procedure, shortened: (§1)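 Application occurs immediately after seeding, with diluted emulsion added to paddy water (about 3 cm deep) over puddled, fertilized soil at 120 g active ingredient per 10 ares. Herbicidal rate is calculated from mean dry weight against untreated controls 14 days later.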

Row | SMILES | Herbicidal rate (%) Echinochloa crus-galli [%]
1 | Cc1c(Cc2ccccc2N(C(=O)Cc2ccccc2)S(=O)(=O)C(F)(F)F)c(=O)on1C(C)(C)C [Compound 1-503] | 90
2 | COC(=O)N(c1ccccc1Cc1c(C)n(C(C)C)oc1=O)S(=O)(=O)C(F)(F)F [Compound 1-575] | 90

What follows are molecules tested on Scirpus juncoides in the same assay as above. Conditions: 120 g/10a active ingredient, dry weight vs untreated area, 14 days after treatment.
Assay type: in vivo
Procedure, shortened: as §1

Row | SMILES | Herbicidal rate (%) Scirpus juncoides [%]
3 | Cc1c(Cc2ccccc2N(C(=O)Cc2ccccc2)S(=O)(=O)C(F)(F)F)c(=O)on1C(C)(C)C [Compound 1-503] | 90
4 | COC(=O)N(c1ccccc1Cc1c(C)n(C(C)C)oc1=O)S(=O)(=O)C(F)(F)F [Compound 1-575] | 100

These molecules were tested on broad leaf weeds (Lindernia pyxidaria and Monochoria vaginalis) in the same assay as above. Conditions: Lindernia pyxidaria, 120 g/10a active ingredient, dry weight vs untreated area, 14 days after treatment.
Assay type: in vivo
Procedure, shortened: as §1

Row | SMILES | Herbicidal rate (%) Lindernia pyxidaria [%]
5 | Cc1c(Cc2ccccc2N(C(=O)Cc2ccccc2)S(=O)(=O)C(F)(F)F)c(=O)on1C(C)(C)C [Compound 1-503] | 90
6 | COC(=O)N(c1ccccc1Cc1c(C)n(C(C)C)oc1=O)S(=O)(=O)C(F)(F)F [Compound 1-575] | 100

Same assay, conditions: Monochoria vaginalis, 120 g/10a active ingredient, dry weight vs untreated area, 14 days after treatment

Row | SMILES | Herbicidal rate (%) Monochoria vaginalis [%]
7 | Cc1c(Cc2ccccc2N(C(=O)Cc2ccccc2)S(=O)(=O)C(F)(F)F)c(=O)on1C(C)(C)C [Compound 1-503] | 90
8 | COC(=O)N(c1ccccc1Cc1c(C)n(C(C)C)oc1=O)S(=O)(=O)C(F)(F)F [Compound 1-575] | 100

These molecules were tested on Echinochloa crus-galli (assay: Test Example 2: herbicidal effect test by treatment during growing period in paddy rice cultivation (seven days after seeding)). Conditions: 120 g/10a active ingredient, assessed 14 days after treatment, dry weight vs untreated area.
Assay type: in vivo
Procedure, shortened: (§2)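 Seeds sown 0–1 cm deep in puddled, fertilised paddy soil with about 3 cm standing water in a glass greenhouse. Diluted emulsion dropped into the water seven days after seeding at 120 g active ingredient per 10 ares. Herbicidal rate (%) from mean dry weight vs untreated, duplicate, 14 days after treatment.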

Row | SMILES | Herbicidal rate (%) Echinochloa crus-galli [%]
9 | Cc1c(Cc2ccccc2N(C(=O)Cc2ccccc2)S(=O)(=O)C(F)(F)F)c(=O)on1C(C)(C)C [Compound 1-503] | 90
10 | COC(=O)N(c1ccccc1Cc1c(C)n(C(C)C)oc1=O)S(=O)(=O)C(F)(F)F [Compound 1-575] | 90

Each molecule was assayed on Scirpus juncoides in the same assay as above. Conditions: 120 g/10a active ingredient, assessed 14 days after treatment, dry weight vs untreated area.
Assay type: in vivo
Procedure, shortened: as §2

Row | SMILES | Herbicidal rate (%) Scirpus juncoides [%]
11 | Cc1c(Cc2ccccc2N(C(=O)Cc2ccccc2)S(=O)(=O)C(F)(F)F)c(=O)on1C(C)(C)C [Compound 1-503] | 90
12 | COC(=O)N(c1ccccc1Cc1c(C)n(C(C)C)oc1=O)S(=O)(=O)C(F)(F)F [Compound 1-575] | 100

The molecules below were run on broad leaf weeds (Lindernia pyxidaria and Monochoria vaginalis) in the same assay as above. Conditions: Lindernia pyxidaria, 120 g/10a active ingredient, assessed 14 days after treatment, dry weight vs untreated area.
Assay type: in vivo
Procedure, shortened: as §2

Row | SMILES | Herbicidal rate (%) Lindernia pyxidaria [%]
13 | Cc1c(Cc2ccccc2N(C(=O)Cc2ccccc2)S(=O)(=O)C(F)(F)F)c(=O)on1C(C)(C)C [Compound 1-503] | 90
14 | COC(=O)N(c1ccccc1Cc1c(C)n(C(C)C)oc1=O)S(=O)(=O)C(F)(F)F [Compound 1-575] | 100

Same assay, conditions: Monochoria vaginalis, 120 g/10a active ingredient, assessed 14 days after treatment, dry weight vs untreated area

Row | SMILES | Herbicidal rate (%) Monochoria vaginalis [%]
15 | Cc1c(Cc2ccccc2N(C(=O)Cc2ccccc2)S(=O)(=O)C(F)(F)F)c(=O)on1C(C)(C)C [Compound 1-503] | 90
16 | COC(=O)N(c1ccccc1Cc1c(C)n(C(C)C)oc1=O)S(=O)(=O)C(F)(F)F [Compound 1-575] | 100

The molecules below were run on Amaranthus viridis (assay: Test Example 3: herbicidal effect test by treatment of dry field farming soil (one day after seeding)). Conditions: 120 g/10a active ingredient, evaluated 14 days after treatment.
Assay type: in vivo
Procedure, shortened: (§3)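 Alluvial dry-field soil in pots, top 1 cm mixed with 20 seeds per weed species. One day after seeding, the water-diluted emulsion was sprayed onto the soil surface at 100 L per 10 ares (120 g active ingredient per 10 ares). Duplicate pots; herbicidal rate (%) from plant dry weight versus untreated, 14 days after treatment.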

Row | SMILES | herbicidal rate, Amaranthus viridis [%]
17 | Cc1c(Cc2ccccc2N(C(=O)Cc2ccccc2)S(=O)(=O)C(F)(F)F)c(=O)on1C(C)(C)C [Compound 1-503] | 90
18 | COC(=O)N(c1ccccc1Cc1c(C)n(C(C)C)oc1=O)S(=O)(=O)C(F)(F)F [Compound 1-575] | 40

The molecules below were run on Chenopodium album in the same assay as above. Conditions: 120 g/10a active ingredient, evaluated 14 days after treatment.
Assay type: in vivo
Procedure, shortened: as §3

Row | SMILES | herbicidal rate, Chenopodium album [%]
19 | Cc1c(Cc2ccccc2N(C(=O)Cc2ccccc2)S(=O)(=O)C(F)(F)F)c(=O)on1C(C)(C)C [Compound 1-503] | 90
20 | COC(=O)N(c1ccccc1Cc1c(C)n(C(C)C)oc1=O)S(=O)(=O)C(F)(F)F [Compound 1-575] | 40

Each molecule was assayed on Echinochloa crus-galli in the same assay as above. Conditions: 120 g/10a active ingredient, evaluated 14 days after treatment.
Assay type: in vivo
Procedure, shortened: as §3

Row | SMILES | herbicidal rate, Echinochloa crus-galli [%]
21 | Cc1c(Cc2ccccc2N(C(=O)Cc2ccccc2)S(=O)(=O)C(F)(F)F)c(=O)on1C(C)(C)C [Compound 1-503] | 90
22 | COC(=O)N(c1ccccc1Cc1c(C)n(C(C)C)oc1=O)S(=O)(=O)C(F)(F)F [Compound 1-575] | 90

The molecules below were run on southern crabgrass in the same assay as above. Conditions: 120 g/10a active ingredient, evaluated 14 days after treatment.
Assay type: in vivo
Procedure, shortened: as §3

Row | SMILES | herbicidal rate, southern crabgrass [%]
23 | Cc1c(Cc2ccccc2N(C(=O)Cc2ccccc2)S(=O)(=O)C(F)(F)F)c(=O)on1C(C)(C)C [Compound 1-503] | 90
24 | COC(=O)N(c1ccccc1Cc1c(C)n(C(C)C)oc1=O)S(=O)(=O)C(F)(F)F [Compound 1-575] | 90

Each molecule was assayed on Amaranthus viridis (assay: Test Example 4: herbicidal effect test by treatment of leave and stem in dry field farming (seven days after seeding)). Conditions: 120 g/10a active ingredient; emulsion sprayed seven days after seeding; evaluated 14 days after treatment.
Assay type: in vivo
Procedure, shortened: (§4)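 Weeds were seeded at 20 seeds per species into the top 1 cm of alluvial upland soil in pots, then sprayed 7 days after seeding with water-diluted emulsifiable concentrate at 100 L/10 a, giving 120 g active ingredient/10 a. Duplicate pots; herbicidal rate (%) was 14 days post-treatment, from dry weight versus untreated.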

Row | SMILES | herbicidal effect (herbicidal rate), Amaranthus viridis [%]
25 | Cc1c(Cc2ccccc2N(C(=O)Cc2ccccc2)S(=O)(=O)C(F)(F)F)c(=O)on1C(C)(C)C [Compound 1-503] | 40
26 | COC(=O)N(c1ccccc1Cc1c(C)n(C(C)C)oc1=O)S(=O)(=O)C(F)(F)F [Compound 1-575] | 30

These molecules were tested on Chenopodium album in the same assay as above. Conditions: 120 g/10a active ingredient; emulsion sprayed seven days after seeding; evaluated 14 days after treatment.
Assay type: in vivo
Procedure, shortened: as §4

Row | SMILES | herbicidal effect (herbicidal rate), Chenopodium album [%]
27 | Cc1c(Cc2ccccc2N(C(=O)Cc2ccccc2)S(=O)(=O)C(F)(F)F)c(=O)on1C(C)(C)C [Compound 1-503] | 40
28 | COC(=O)N(c1ccccc1Cc1c(C)n(C(C)C)oc1=O)S(=O)(=O)C(F)(F)F [Compound 1-575] | 90

What follows are molecules tested on Echinochloa crus-galli in the same assay as above. Conditions: 120 g/10a active ingredient; emulsion sprayed seven days after seeding; evaluated 14 days after treatment.
Assay type: in vivo
Procedure, shortened: as §4

Row | SMILES | herbicidal effect (herbicidal rate), Echinochloa crus-galli [%]
29 | Cc1c(Cc2ccccc2N(C(=O)Cc2ccccc2)S(=O)(=O)C(F)(F)F)c(=O)on1C(C)(C)C [Compound 1-503] | 90
30 | COC(=O)N(c1ccccc1Cc1c(C)n(C(C)C)oc1=O)S(=O)(=O)C(F)(F)F [Compound 1-575] | 90

What follows are molecules tested on southern crabgrass in the same assay as above. Conditions: 120 g/10a active ingredient; emulsion sprayed seven days after seeding; evaluated 14 days after treatment.
Assay type: in vivo
Procedure, shortened: as §4

Row | SMILES | herbicidal effect (herbicidal rate), southern crabgrass [%]
31 | Cc1c(Cc2ccccc2N(C(=O)Cc2ccccc2)S(=O)(=O)C(F)(F)F)c(=O)on1C(C)(C)C [Compound 1-503] | 90
32 | COC(=O)N(c1ccccc1Cc1c(C)n(C(C)C)oc1=O)S(=O)(=O)C(F)(F)F [Compound 1-575] | 90
